Consider 18 compounds from US20060106106A1, “Beta-hydroxyphenylalkylamines and their use for treating glaucoma” (priority 2002, published 2006).

Data set [1] has as its target T1, 5-HT2A (Rattus norvegicus, UniProt P14842).
T1 construct: [^3H]myo-inositol-labeled A7r5 rat vascular smooth muscle cells; endogenous in cells; host or cells: A7r5 rat vascular smooth muscle cells
As to the kind of experiment: 5-HT2 Functional Assay: [Ca2+]i Mobilization (FLIPR) in A7r5 cells. It is filed as cell-based. Conditions: for Emax: A7r5 cells, FLIPR, percentage of maximum 5-HT-induced response, read-out: 5-HT2A % Emax (Ca+2 Assay). Here is the method: 5-HT2 Functional Assay: [Ca^2+]i Mobilization
The receptor-mediated mobilization on intracellular calcium ([Ca^2+]i) was studied using the Fluorescence Imaging Plate Reader (FLIPR) instrument. Rat vascular smooth muscle cells, A7r5, were grown in a normal media of DMEM/10% FBS and 10 μg/mL gentamycin. Confluent cell monolayers were trypsinized, pelleted, and re-suspended in normal media. Cells were seeded in a 50 μL volume at a density of 20,000 cells/well in a black wall, 96-well tissue culture plate and grown for 2 days.
On the day of the experiment, one vial of FLIPR Calcium Assay Kit dye was re-suspended in 50 mL of a FLIPR buffer consisting of Hank's Balanced Salt Solution (HBSS), 20 mM HEPES, and 2.5 mM probenecid, pH 7.4. Cells were loaded with the calcium-sensitive dye by addition of an equal volume (50 μL) to each well of the 96-well plate and incubated with dye for 1 h at 23° C.
Compounds were diluted 1:50 in 20% DMSO/20% Ethanol. For “hit” screening, compounds were further diluted 1:10 in FLIPR buffer and tested at a final concentration of 10 μM.
The compound plate and cell plate were placed in the FLIPR instrument. At the beginning of an experimental run, a signal test was performed to check the basal fluorescence signal from the dye-loaded cells and the uniformity of the signal across the plate. The basal fluorescence was adjusted between 8000-12000 counts by modifying the exposure time, the camera F-stop, or the laser power. Instrument settings for a typical assay were the following: laser power 0.3-0.6 W, camera F-stop F/2, and exposure time 0.4 sec. An aliquot (25 μL) of the test compound was added to the existing 100 μL dye-loaded cells at a dispensing speed of 50 μL/sec. Fluorescence data were collected in real-time at 1.0 sec intervals for the first 60 secs and at 6.0 sec intervals for an additional 120 secs. Responses were measured as peak fluorescence intensity minus basal and where appropriate were expressed as a percentage of a maximum 5-HT-induced response.

The target in data set [2] is T1, 5-HT2A. As to the kind of experiment: 5-HT2 Functional Assay: Phosphoinositide (PI) Turnover Assay in A7r5 cells. It counts as cell-based. The settings on record: for Emax: A7r5 cells, relative to 5-HT (set at 100%). The method, then: 5-HT2 Functional Assay: Phosphoinositide (PI) Turnover Assay
The relative agonist activity of serotonergic compounds at the 5-HT2 receptor can be determined in vitro using the ability of the compounds to stimulate the production of [^3H]inositol phosphates in [^3H]myo-inositol-labeled A7r5 rat vascular smooth muscle cells by their ability to activate the enzyme phospholipase C. These cells are grown in culture plates, maintained in a humidified atmosphere of 5% CO2 and 95% air and fed semi-weekly with Dulbecco's modified Eagle medium (DMEM) containing 4.5 g/L glucose and supplemented with 2 mM glutamine, 10 μg/ml gentamicin, and 10% fetal bovine serum. For the purpose of conducting the phosphoinositide (PI) turnover experiments, the A7r5 cells are cultured in 24-well plates as previously [J. Pharmacol. Expt. Ther. 286, 411 (1998)]. Confluent cells are exposed for 24-30 hrs to 1.5 μCi [^3H]-myo-inositol (18.3 Ci/mmol) in 0.5 ml of serum-free medium. Cells are then rinsed once with DMEM/F-12 containing 10 mM LiCl prior to incubation with the test agent (or solvent as the control) in 1.0 mL of the same medium for 1 hr at 37° C., after which the medium is aspirated and 1 ml of cold 0.1 M formic acid added to stop the reaction. The chromatographic separation of [^3H]-inositol phosphates ([^3H]-IPs) on an AG-1-X8 column is performed as previously described [J. Pharmacol. Expt. Ther. 286, 411 (1998)] with sequential washes with H2O and 50 mM ammonium formate, followed by elution of the total [^3H]-IPs fraction with 1.2 M ammonium formate containing 0.1 M formic acid. The eluate (4 mL) is collected, mixed with 15 ml scintillation fluid, and the total [^3H]-IPs determined by scintillation counting on a beta-counter. Concentration-response data are analyzed by the sigmoidal fit function of the Origin Scientific Graphics software (Microcal Software, Northampton, Mass.) to determine agonist potency (EC50 value) and efficacy (Emax). Serotonin (5-HT) is used as a positive control (standard) agonist compound and the efficacy of test compounds is compared to that of 5-HT (set at 100%).

Structures can show the parent of a compound that is named as a salt.

T1 sequence (P14842 whole entry): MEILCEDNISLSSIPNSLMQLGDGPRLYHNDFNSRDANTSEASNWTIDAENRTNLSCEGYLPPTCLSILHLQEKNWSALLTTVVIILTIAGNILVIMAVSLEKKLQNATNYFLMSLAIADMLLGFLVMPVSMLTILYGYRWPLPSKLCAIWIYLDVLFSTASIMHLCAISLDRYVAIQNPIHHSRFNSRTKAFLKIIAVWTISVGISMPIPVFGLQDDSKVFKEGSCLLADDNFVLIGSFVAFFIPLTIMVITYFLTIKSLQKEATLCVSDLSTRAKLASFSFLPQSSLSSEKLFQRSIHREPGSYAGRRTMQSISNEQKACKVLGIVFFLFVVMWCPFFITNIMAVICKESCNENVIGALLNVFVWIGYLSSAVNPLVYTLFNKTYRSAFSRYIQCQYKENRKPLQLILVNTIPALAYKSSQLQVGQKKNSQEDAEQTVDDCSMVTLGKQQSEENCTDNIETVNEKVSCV

In general, melting point refers to the temperature of the solid-liquid transition. The compound `COc1cc([C@H](O)[C@@H](C)N)c(OC)cc1Br` (as salt: hydrochloride) [Compound 8, (+)-erythro-(1S,2R)-1-Hydroxy-1-(4-bromo-2,5-dimethoxyphenyl)-2-aminopropane Hydrochloride] came in with a melting point of 194 to 196 °C.

The compound `COc1cc([C@@H](O)[C@@H](C)N)c(OC)cc1Br` (as salt: hydrochloride) [Compound 11, (−)-threo-(1R,2R)-1-Hydroxy-1-(4-bromo-2,5-dimethoxyphenyl)-2-aminopropane Hydrochloride] gave a melting point of 214 to 215 °C.

`CC[C@H](N)[C@H](O)c1cc(OC)c(Br)cc1OC` (as salt: oxalate) [Compound 7, (−)-erythro-(1R,2S)-1-Hydroxy-1-(4-bromo-2,5-dimethoxyphenyl)-2-aminobutane Oxalate] yielded a melting point of 203 to 205 °C.

`COc1cc([C@@H](OC)[C@H](C)N)c(OC)cc1Br` (as salt: oxalate) [Compound 12, (−)-erythro-(1R,2S)-1-Methoxy-1-(4-bromo-2,5-dimethoxyphenyl)-2-aminopropane Oxalate] returned a melting point of 186 to 188 °C.

`COc1cc(C(O)CN)c(OC)cc1CCCc1ccccc1` (racemic) (as salt: hydrochloride) [Compound 5, (±)1-Hydroxy-1-[4-(3-phenylpropyl)-2,5-dimethoxyphenyl]-2-aminoethane Hydrochloride] gave a melting point of 174 to 176 °C.

The Emax is the size of the effect at its maximum, as opposed to the concentration needed. For the compound `COc1cc(C(O)CN)c(OC)cc1CCCc1ccccc1` (racemic) [Compound 5, (±)1-Hydroxy-1-[4-(3-phenylpropyl)-2,5-dimethoxyphenyl]-2-aminoethane Hydrochloride, reference compound], the Emax on 5-HT2A [1] amounted to 3.1%.

`COc1cc(C(O)C(C)N)c(OC)cc1Br` (single isomer, unassigned; (+)) (as salt: hydrochloride) [Compound 10] returned a melting point of 213 to 214 °C.

On to `COc1cc(C(O)C(C)N)c(OC)cc1Br` (single isomer, unassigned; (+)) [Compound 10, Hydrochloride], for which the Emax at 5-HT2A [2] is 47%; at 5-HT2A [1], 16%.

As a reminder, the EC50 is the concentration needed to bring the measured effect to its halfway point. `COc1cc(C(OC)C(C)N)c(OC)cc1Br` (single isomer, unassigned; (+)) [Compound 15]: at 5-HT2A [1], the midpoint of the response, the EC50, lay at 1410 nM and the Emax worked out at 31%.

As to `COc1ccc(OC)c(C(O)C(C)N)c1` (stereo not shown) [Compound 1, reference compound], the Emax on 5-HT2A [1] stood at 9%.

Consider `COc1cc(C(O)CN)c(OC)cc1Br` (stereo not shown) [Compound 6, reference compound], for which, at 5-HT2A [1], the Emax stood at 7.8%.

For the compound `CC[C@H](N)[C@H](O)c1cc(OC)c(Br)cc1OC` [Compound 7, (−)-erythro-(1R,2S)-1-Hydroxy-1-(4-bromo-2,5-dimethoxyphenyl)-2-aminobutane Oxalate, reference compound], the Emax on 5-HT2A [1] came out at 4.8%.

As to `COc1cc([C@H](O)[C@@H](C)N)c(OC)cc1Br` [Compound 8, (+)-erythro-(1S,2R)-1-Hydroxy-1-(4-bromo-2,5-dimethoxyphenyl)-2-aminopropane Hydrochloride], at 5-HT2A [2], the EC50 was determined as 8000 nM and the Emax stood at 57%. Further, the Emax on 5-HT2A [1] worked out at 20%.

At 5-HT2A [2], `COc1cc([C@@H](O)[C@H](C)N)c(OC)cc1Br` [Compound 9, (−)-erythro-(1R,2S)-1-Hydroxy-1-(4-bromo-2,5-dimethoxyphenyl)-2-aminopropane Hydro-chloride] yielded an EC50 of 1180 nM and an Emax of 68%. Moreover, at 5-HT2A [1], the response was half-maximal at 84 nM (EC50) and the Emax is 22%.

For `COc1cc([C@@H](O)[C@@H](C)N)c(OC)cc1Br` [Compound 11, (−)-threo-(1R,2R)-1-Hydroxy-1-(4-bromo-2,5-dimethoxyphenyl)-2-aminopropane Hydrochloride], the EC50 on 5-HT2A [2] is 1130 nM; on 5-HT2A [1], 96.9 nM. The Emax on 5-HT2A [2] was 102%; on 5-HT2A [1], 54%.

For the compound `COc1cc([C@@H](OC)[C@H](C)N)c(OC)cc1Br` [Compound 12, (−)-erythro-(1R,2S)-1-Methoxy-1-(4-bromo-2,5-dimethoxyphenyl)-2-aminopropane Oxalate], the values for the half-maximal effective concentration (EC50) at 5-HT2A [2] and at 5-HT2A [1] were 1080 nM and 1330 nM, respectively. For the same compound, the Emax worked out at 100% at 5-HT2A [2] and 54% at 5-HT2A [1].

At 5-HT2A [2], `COc1cc([C@H](OC)[C@@H](C)N)c(OC)cc1Br` [Compound 13, (+)-erythro-(1S,2R)-1-Methoxy-1-(4-bromo-2,5-dimethoxyphenyl)-2-aminopropane Oxalate] yielded a concentration for a half-maximal effect (EC50) of 4610 nM and an Emax of 117%. Moreover, at 5-HT2A [1], it took 5040 nM to reach a half-maximal effect (EC50) and the Emax is 49%.

Take `COc1cc([C@@H](OC)[C@@H](C)N)c(OC)cc1Br` [Compound 14, (−)-thero-(1R,2R)-1-Methoxy-1-(4-bromo-2,5-dimethoxyphenyl)-2-aminopropane Oxalate]: at 5-HT2A [2], a half-maximal effect (EC50) was put at 42.4 nM and the Emax was 111%. Further, on 5-HT2A [1], the EC50 was 126 nM and the Emax was found to be 93%.
